In PubChem BioAssay (NCI):
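Cells were grown in 96-well plates and exposed to each compound for 48 hours at five concentrations; endpoints were interpolated linearly between bracketing concentrations, or set to the highest concentration if not reached. TGI denotes the concentration required for complete inhibition of growth.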

How the values were obtained:
Assay in all cases: DTP human tumour cell line panel, 48 h
OVCAR-4 ovarian = system: OVCAR-4 ovarian
NCI-H460 lung = system: NCI-H460 lung
HOP-62 NSCLC = system: HOP-62 NSCLC
SK-MEL-28 melanoma = system: SK-MEL-28 melanoma
UO-31 renal = system: UO-31 renal
TK-10 renal = system: TK-10 renal
SNB-19 CNS = system: SNB-19 CNS
CAKI-1 renal = system: CAKI-1 renal
DU-145 prostate = system: DU-145 prostate
COLO 205 colon = system: COLO 205 colon
SW-620 colon = system: SW-620 colon
SF-268 CNS = system: SF-268 CNS
RPMI-8226 leukemia = system: RPMI-8226 leukemia
786-0 renal = system: 786-0 renal
SR leukemia = system: SR leukemia
NCI-H226 lung = system: NCI-H226 lung
HCC-2998 colon = system: HCC-2998 colon
OVCAR-3 ovarian = system: OVCAR-3 ovarian
OVCAR-5 ovarian = system: OVCAR-5 ovarian

| SMILES | TGI (OVCAR-4 ovarian) | TGI (NCI-H460 lung) | TGI (HOP-62 NSCLC) | TGI (SK-MEL-28 melanoma) | TGI (UO-31 renal) | TGI (TK-10 renal) | TGI (SNB-19 CNS) | TGI (CAKI-1 renal) | TGI (DU-145 prostate) | TGI (COLO 205 colon) | TGI (SW-620 colon) | TGI (SF-268 CNS) | TGI (RPMI-8226 leukemia) | TGI (786-0 renal) | TGI (SR leukemia) | TGI (NCI-H226 lung) | TGI (HCC-2998 colon) | TGI (OVCAR-3 ovarian) | TGI (OVCAR-5 ovarian) |
| --- | --- | --- | --- | --- | --- | --- | --- | --- | --- | --- | --- | --- | --- | --- | --- | --- | --- | --- | --- |
| C=CCOC(=O)Cn1cc(C)c(=O)[nH]c1=O | > 100 µM | > 100 µM | > 100 µM | > 100 µM | > 100 µM | > 100 µM | > 100 µM | > 100 µM | > 100 µM | > 100 µM | > 100 µM | > 100 µM | > 100 µM | > 100 µM | > 100 µM | > 100 µM | > 100 µM |  |  |
| CCOc1ccc(Nc2nc3c(s2)C(=O)c2ccccc2C3=O)cc1 | 21.3 µM | 38.9 µM | 32 µM | 36.1 µM | 28.4 µM | 36.3 µM | 30.1 µM | 20.7 µM | 27.8 µM | 46 µM | 15.2 µM | 16.7 µM | > 100 µM | 31.2 µM |  |  | 33.5 µM | 12.9 µM | 40 µM |
| CCOc1ccc(NC(=O)C2=C(C)NC(C)=C(C(=O)Nc3ccc(OCC)cc3)C2c2ccc(O)c(OC)c2)cc1 | > 100 µM | > 100 µM | 92.9 µM | > 100 µM | > 100 µM | > 100 µM | > 100 µM | > 100 µM |  | > 100 µM | > 100 µM | > 100 µM | > 100 µM | > 100 µM |  | > 100 µM | 76.1 µM | > 100 µM | > 100 µM |
| CC(=O)O[C@]12CCCCC1C1(O)C(O)CCCCC12 (some centres undefined) | > 100 µM | > 100 µM | > 100 µM | > 100 µM | > 100 µM | > 100 µM | > 100 µM |  |  | > 100 µM | > 100 µM | > 100 µM | > 100 µM | > 100 µM | > 100 µM | > 100 µM |  |  |  |
| C#CCNC(=O)NCCCC(NC(C)=O)C(=O)NCc1ccccc1 (centres undefined) | > 100 µM | > 100 µM | > 100 µM | > 100 µM | > 100 µM | > 100 µM | > 100 µM | > 100 µM |  | > 100 µM | > 100 µM | > 100 µM | > 100 µM | > 100 µM | > 100 µM | > 100 µM | > 100 µM | > 100 µM | > 100 µM |
| Nc1ccc2nc(NCc3ccc(F)cc3)cnc2c1 | > 100 µM | > 100 µM | > 100 µM | > 100 µM | > 100 µM | > 100 µM | > 100 µM |  |  | > 100 µM | > 100 µM | > 100 µM | > 100 µM | > 100 µM | > 100 µM | > 100 µM | > 100 µM | > 100 µM | > 100 µM |
| O=[N+]([O-])c1ccc2[nH]nc(OCc3ccccn3)c2c1 | > 100 µM | > 100 µM | > 100 µM | > 100 µM | > 100 µM | > 100 µM | > 100 µM | > 100 µM | > 100 µM | > 100 µM | > 100 µM | > 100 µM | > 100 µM | > 100 µM | > 100 µM | > 100 µM | > 100 µM | > 100 µM | > 100 µM |
| CCCOC(=O)C1CCC(=O)N1C(=O)C(C)Cl (centres undefined) | > 100 µM | > 100 µM | > 100 µM | > 100 µM | > 100 µM | > 100 µM | > 100 µM | > 100 µM |  | > 100 µM | > 100 µM | > 100 µM | > 100 µM | > 100 µM |  | > 100 µM | > 100 µM | > 100 µM | > 100 µM |
| O=C1[C@@H]2C(c3ccc(Cl)cc3Cl)=NO[C@@H]2C(=O)N1c1ccc(Cc2ccc(N3C(=O)[C@H]4C(c5ccc(Cl)cc5Cl)=NO[C@H]4C3=O)cc2)cc1 | > 100 µM |  | > 100 µM | > 100 µM | > 100 µM | > 100 µM |  | > 100 µM |  | > 100 µM | > 100 µM | > 100 µM | > 100 µM | > 100 µM |  | > 100 µM | > 100 µM | > 100 µM | > 100 µM |
| Cc1ccc(O)c(C(c2ccc([N+](=O)[O-])cc2)c2cc(C)ccc2O)c1 | 23.8 µM |  | 23.1 µM | 38.4 µM | 15.2 µM | 30.4 µM | 26.2 µM | 28.6 µM | 27.4 µM | 44.1 µM | 32.1 µM | 22 µM | 29.8 µM | 44.5 µM | 22.8 µM | 39.9 µM | 9.66 µM | 19.9 µM | 28.9 µM |
| N#CCCN(c1ccc(/C=C2\N=C(Cc3ccccc3)OC2=O)cc1)S(=O)(=O)c1ccccc1 |  | > 100 µM | > 100 µM | > 100 µM | > 100 µM | > 100 µM | > 100 µM | > 100 µM |  | > 100 µM | > 100 µM | > 100 µM | > 100 µM | > 100 µM |  | > 100 µM | > 100 µM | > 100 µM | > 100 µM |
| COc1ccccc1/C=C(\C#N)C(=O)c1ccccc1 | > 100 µM | > 100 µM | > 100 µM | > 100 µM | > 100 µM |  | > 100 µM | > 100 µM |  | > 100 µM | > 100 µM | > 100 µM | > 100 µM | > 100 µM | > 100 µM | > 100 µM | > 100 µM | > 100 µM | > 100 µM |
| CN(C)CCC(O)(c1ccccc1)C(O)(CCN(C)C)c1ccccc1 (centres undefined) | > 100 µM | > 100 µM | > 100 µM | > 100 µM | > 100 µM | > 100 µM | > 100 µM | > 100 µM |  | > 100 µM | > 100 µM | > 100 µM | > 100 µM | > 100 µM |  |  | > 100 µM | > 100 µM | > 100 µM |
| CCOC(=O)[C@]12C(=C(c3ccccc3)O[C@H]3C=CCC[C@H]31)C(=O)C(=O)N2c1ccccc1 | > 100 µM | > 100 µM | > 100 µM |  | > 100 µM | > 100 µM | > 100 µM | > 100 µM | > 100 µM | > 100 µM |  | > 100 µM | 51.6 µM | > 100 µM | 46.8 µM |  | > 100 µM | > 100 µM | > 100 µM |
